System: HCT116 colon cancer cells
Assay: KSP Cellular Assay (percent of cells staining positive for Phos-Histone H3 / Phos-MPM2)
Format: cell-based
Conditions: Homo sapiens, HCT-116, 16 h, Table 401; HCT116 cells, 16 hours with drug; read-out: ED50 (nM) Range
Protocol: HCT116 colon cancer cells were grown in DMEM:F12 media with 10% heat inactivated FBS at 37 degrees with 5% CO2. Cells were plated at 7,500 cells per well in PDL coated 384-well tissue culture plates. 6 hours later media was removed and new media containing drug was added. Cells were incubated with drug for 16 hours. All further steps were performed at room temperature in the dark. Cells were fixed with 25 ul/well Prefer fixation solution plus 250 nM Hoechst dye and incubated for 30 minutes. The fixation solution was removed and cells were washed with PBS. Cells were then permeabilized with 25 ul/well 0.2% Triton-X in PBS and incubated for 10 minutes. Cells were washed with PBS and then incubated with 25 ul/well PBS containing 3% FBS for 30 minutes. Cells were then stained overnight at 4 degrees with 25 ul/well antibody solution in PBS plus 3% FBS. Antibodies used were Phos-Histone H3 (ser10)-Alexa Flur 488 Conjugate and Phos-MPM2 Texas Red Conjugate. Cells were washed with PBS and then immunofluorescence images captured with HT Pathway microscope. The percent of cells staining positive was calculated and EC50 values for the compounds of the invention that were tested were determined using Excel XLfit.
EC50 Determinations: Dose-response curves were plotted from inhibition data generated each in duplicate, from 8 point serial dilutions of inhibitory compounds. Concentration of compound was plotted against enzyme activity (OD reading). To generate EC50 values, the dose-response curves were then fitted to a standard sigmoidal curve and EC50 values were derived by nonlinear regression analysis.

| SMILES | EC50 |
| --- | --- |
| N[C@H](C(=O)N1N=C(c2cc(F)ccc2F)SC12CCCc1ccsc12)C1CC1 (stereo partly drawn) [compound 428] | > 1000 nM |
| CN1CCC(C(=O)N2N=C(c3cc(F)ccc3F)SC23CCCc2ccsc23)CC1 (stereo not drawn) [compound 429] | > 1000 nM |
| CC(C)(C)C(=O)N1N=C(c2cc(F)ccc2F)SC12CCOc1ccccc12 (stereo not drawn) [compound 430] | > 1000 nM |
| O=C(c1cccnc1)N1N=C(c2cc(F)ccc2F)SC12CCOc1ccccc12 (stereo not drawn) [compound 431] | > 1000 nM |
| O=C(c1ccccn1)N1N=C(c2cc(F)ccc2F)SC12CCOc1ccccc12 (stereo not drawn) [compound 432] | > 1000 nM |
| NCCC(=O)N1N=C(c2cc(F)ccc2F)SC12CCOc1ccccc12 (stereo not drawn) [compound 433] | 500 to 1000 nM |
| NCCCC(=O)N1N=C(c2cc(F)ccc2F)SC12CCOc1ccccc12 (stereo not drawn) [compound 434] | ≤ 500 nM |
| CO[C@@H](C)C(=O)N1N=C(c2cc(F)ccc2F)SC12CCOc1ccccc12 (stereo partly drawn) [compound 435] | 500 to 1000 nM |
| C[C@H](O)C(=O)N1N=C(c2cc(F)ccc2F)SC12CCc1ccccc12 (stereo partly drawn) [compound 436] | ≤ 500 nM |
| NCCCC(=O)N1N=C(c2cc(F)ccc2F)SC12CCc1ccccc12 (stereo not drawn) [compound 437] | ≤ 500 nM |
| CN(C)CCCC(=O)N1N=C(c2cc(F)ccc2F)SC12CCc1ccccc12 (stereo not drawn) [compound 438] | ≤ 500 nM |
| NC1CCC(C(=O)N2N=C(c3cc(F)ccc3F)SC23CCc2ccccc23)CC1 (stereo not drawn) [compound 439] | 500 to 1000 nM |
| NC1CCC(C(=O)N2N=C(c3cc(F)ccc3F)SC23CCc2ccccc23)C1 (stereo not drawn) [compound 440] | ≤ 500 nM |
| COC(C)C(=O)N1N=C(c2cc(F)ccc2F)SC12CCc1ccccc12 (stereo not drawn) [compound 441] | ≤ 500 nM |
| NCCC(=O)N1N=C(c2cc(F)ccc2F)SC12CCc1ccccc12 (stereo not drawn) [compound 442] | ≤ 500 nM |
| NCCCCC(=O)N1N=C(c2cc(F)ccc2F)SC12CCc1ccccc12 (stereo not drawn) [compound 443] | ≤ 500 nM |
| NC(=O)CCC(=O)N1N=C(c2cc(F)ccc2F)SC12CCc1ccccc12 (stereo not drawn) [compound 444] | ≤ 500 nM |
| O=C(CC1CCCNC1)N1N=C(c2cc(F)ccc2F)SC12CCc1ccccc12 (stereo not drawn) [compound 446] | 500 to 1000 nM |
| O=C(CC1CCNCC1)N1N=C(c2cc(F)ccc2F)SC12CCc1ccccc12 (stereo not drawn) [compound 447] | ≤ 500 nM |
| O=C(CCC1CCCNC1)N1N=C(c2cc(F)ccc2F)SC12CCc1ccccc12 (stereo not drawn) [compound 448] | > 1000 nM |
| O=C(Cc1ccncc1)N1N=C(c2cc(F)ccc2F)SC12CCc1ccccc12 (stereo not drawn) [compound 449] | ≤ 500 nM |

| SMILES | EC50 |
| --- | --- |
| O=C(Cc1cccnc1)N1N=C(c2cc(F)ccc2F)SC12CCc1ccccc12 (stereo not drawn) [compound 450] | 500 to 1000 nM |
| O=C(CC1CCNC1)N1N=C(c2cc(F)ccc2F)SC12CCc1ccccc12 (stereo not drawn) [compound 451] | ≤ 500 nM |
| CC(N)CCC(=O)N1N=C(c2cc(F)ccc2F)SC12CCc1ccccc12 (stereo not drawn) [compound 452] | ≤ 500 nM |
| CNCCCC(=O)N1N=C(c2cc(F)ccc2F)SC12CCc1ccccc12 (stereo not drawn) [compound 453] | > 500 nM |
| O=C(CCCN1CCCC1)N1N=C(c2cc(F)ccc2F)SC12CCc1ccccc12 (stereo not drawn) [compound 454] | ≤ 500 nM |
| O=C1CCCN1CCCC(=O)N1N=C(c2cc(F)ccc2F)SC12CCc1ccccc12 (stereo not drawn) [compound 455] | 500 to 1000 nM |
| O=C(CCCN1CCCCC1)N1N=C(c2cc(F)ccc2F)SC12CCc1ccccc12 (stereo not drawn) [compound 456] | ≤ 500 nM |
| O=C(CCCN1CCOCC1)N1N=C(c2cc(F)ccc2F)SC12CCc1ccccc12 (stereo not drawn) [compound 457] | ≤ 500 nM |
| NCCCC(=O)N1N=C(c2cc(F)ccc2F)S[C@]12CCOc1ccccc12 [compound 458] | ≤ 500 nM |
| NCCCC(=O)N1N=C(c2cc(F)ccc2F)S[C@@]12CCOc1ccccc12 [compound 459] | > 500 nM |
| O=C(CC1CNC1)N1N=C(c2cc(F)ccc2F)SC12CCc1ccccc12 (stereo not drawn) [compound 460] | ≤ 500 nM |
| O=C(CCC1CCCCN1)N1N=C(c2cc(F)ccc2F)SC12CCc1ccccc12 (stereo not drawn) [compound 461] | > 500 nM |
| O=C(CCC1CCNCC1)N1N=C(c2cc(F)ccc2F)SC12CCc1ccccc12 (stereo not drawn) [compound 462] | ≤ 500 nM |
| CN(C)CCCC(=O)N1N=C(c2cc(F)ccc2F)SC12Cc1ccccc12 (stereo not drawn) [compound 463] | ≤ 500 nM |
| O=C(C1CC1)N1N=C(c2cc(F)ccc2F)SC12CCOc1ccccc12 (stereo not drawn) [compound 464] | 500 to 1000 nM |
| CCC(=O)N1N=C(c2cc(F)ccc2F)SC12CCOc1ccccc12 (stereo not drawn) [compound 465] | ≤ 500 nM |
| COCC(=O)N1N=C(c2cc(F)ccc2F)SC12CCOc1ccccc12 (stereo not drawn) [compound 466] | > 1000 nM |
| CC(C)C(=O)N1N=C(c2cc(F)ccc2F)SC12CCOc1ccccc12 (stereo not drawn) [compound 467] | > 1000 nM |
| CC(C)CC(=O)N1N=C(c2cc(F)ccc2F)SC12CCOc1ccccc12 (stereo not drawn) [compound 468] | > 1000 nM |
| NCC(=O)N1N=C(c2cc(F)ccc2F)SC12CCOc1ccccc12 (stereo not drawn) [compound 469] | > 1000 nM |
| O=C(N1N=C(c2cc(F)ccc2F)SC12CCOc1ccccc12)C(F)(F)F (stereo not drawn) [compound 470] | > 1000 nM |

Now from value to molecule:

| EC50 | SMILES |
| --- | --- |
| ≤ 500 nM | O=C(C(F)F)N1N=C(c2cc(F)ccc2F)SC12CCOc1ccccc12 (stereo not drawn) [compound 471] |
| > 1000 nM | COCCOCC(=O)N1N=C(c2cc(F)ccc2F)SC12CCOc1ccccc12 (stereo not drawn) [compound 472] |
| 500 to 1000 nM | O=C(CO)N1N=C(c2cc(F)ccc2F)SC12CCOc1ccccc12 (stereo not drawn) [compound 473] |
| > 1000 nM | O=C(c1ccncc1)N1N=C(c2cc(F)ccc2F)SC12CCOc1ccccc12 (stereo not drawn) [compound 474] |
| ≤ 500 nM | CN(C)CCCC(=O)N1N=C(c2cc(F)ccc2F)SC12CCOc1ccccc12 (stereo not drawn) [compound 475] |
| > 500 nM | N[C@H]1CC[C@@H](C(=O)N2N=C(c3cc(F)ccc3F)SC23CCOc2ccccc23)C1 (stereo partly drawn) [compound 476] |
| > 500 nM | N[C@@H]1CC[C@H](C(=O)N2N=C(c3cc(F)ccc3F)SC23CCOc2ccccc23)C1 (stereo partly drawn) [compound 477] |
| > 500 nM | N[C@@H]1CC[C@@H](C(=O)N2N=C(c3cc(F)ccc3F)SC23CCOc2ccccc23)C1 (stereo partly drawn) [compound 478] |
| > 500 nM | N[C@H]1CCC[C@@H](C(=O)N2N=C(c3cc(F)ccc3F)SC23CCOc2ccccc23)C1 (stereo partly drawn) [compound 479] |
| > 500 nM | N[C@H]1CC[C@H](C(=O)N2N=C(c3cc(F)ccc3F)SC23CCOc2ccccc23)CC1 (stereo partly drawn) [compound 480] |
| > 500 nM | N[C@H]1CC[C@@H](C(=O)N2N=C(c3cc(F)ccc3F)SC23CCOc2ccccc23)CC1 (stereo partly drawn) [compound 481] |
| ≤ 500 nM | O=C(CCC1CCCNC1)N1N=C(c2cc(F)ccc2F)SC12CCOc1ccccc12 (stereo not drawn) [compound 482] |
| 500 to 1000 nM | O=C(CC1CCCNC1)N1N=C(c2cc(F)ccc2F)SC12CCOc1ccccc12 (stereo not drawn) [compound 483] |
| 500 to 1000 nM | O=C(Cc1cccnc1)N1N=C(c2cc(F)ccc2F)SC12CCOc1ccccc12 (stereo not drawn) [compound 484] |
| ≤ 500 nM | O=C(Cc1ccncc1)N1N=C(c2cc(F)ccc2F)SC12CCOc1ccccc12 (stereo not drawn) [compound 485] |
| 500 to 1000 nM | O=C(CC1CCNCC1)N1N=C(c2cc(F)ccc2F)SC12CCOc1ccccc12 (stereo not drawn) [compound 486] |

| EC50 | SMILES |
| --- | --- |
| ≤ 500 nM | NCCCCC(=O)N1N=C(c2cc(F)ccc2F)SC12CCOc1ccccc12 (stereo not drawn) [compound 487] |
| > 500 nM | NC(=O)CCC(=O)N1N=C(c2cc(F)ccc2F)SC12CCOc1ccccc12 (stereo not drawn) [compound 488] |
| ≤ 500 nM | CNCCCC(=O)N1N=C(c2cc(F)ccc2F)SC12CCOc1ccccc12 (stereo not drawn) [compound 489] |
| ≤ 500 nM | CC(N)CCC(=O)N1N=C(c2cc(F)ccc2F)SC12CCOc1ccccc12 (stereo not drawn) [compound 490] |
| 500 to 1000 nM | O=C(CC1CNC1)N1N=C(c2cc(F)ccc2F)SC12CCOc1ccccc12 (stereo not drawn) [compound 491] |
| ≤ 500 nM | O=C(CCCN1CCCC1)N1N=C(c2cc(F)ccc2F)SC12CCOc1ccccc12 (stereo not drawn) [compound 492] |
| > 500 nM | O=C1CCCN1CCCC(=O)N1N=C(c2cc(F)ccc2F)SC12CCOc1ccccc12 (stereo not drawn) [compound 493] |
| ≤ 500 nM | O=C(CCCN1CCCCC1)N1N=C(c2cc(F)ccc2F)SC12CCOc1ccccc12 (stereo not drawn) [compound 494] |
| > 500 nM | O=C(CCCN1CCOCC1)N1N=C(c2cc(F)ccc2F)SC12CCOc1ccccc12 (stereo not drawn) [compound 495] |
| ≤ 500 nM | O=C(CC1CCNC1)N1N=C(c2cc(F)ccc2F)SC12CCOc1ccccc12 (stereo not drawn) [compound 496] |
| 500 to 1000 nM | O=C(CCC1CCCCN1)N1N=C(c2cc(F)ccc2F)SC12CCOc1ccccc12 (stereo not drawn) [compound 497] |
| ≤ 500 nM | O=C(CCC1CCNCC1)N1N=C(c2cc(F)ccc2F)SC12CCOc1ccccc12 (stereo not drawn) [compound 498] |
| 500 to 1000 nM | N[C@H]1C[C@@H](C(=O)N2N=C(c3cc(F)ccc3F)SC23CCOc2ccccc23)C1 (stereo partly drawn) [compound 499] |
| > 500 nM | N[C@H]1C[C@H](C(=O)N2N=C(c3cc(F)ccc3F)SC23CCOc2ccccc23)C1 (stereo partly drawn) [compound 500] |
| ≤ 500 nM | N[C@H]1C[C@@H](C(=O)N2N=C(c3cc(F)ccc3F)SC23CCc2ccccc23)C1 (stereo partly drawn) [compound 501] |
| ≤ 500 nM | N[C@H]1C[C@H](C(=O)N2N=C(c3cc(F)ccc3F)SC23CCc2ccccc23)C1 (stereo partly drawn) [compound 502] |

Same assay, conditions: Table 401; HCT116 cells, 16 hours with drug; read-out: ED50 (nM) Range

| EC50 | SMILES |
| --- | --- |
| > 1000 nM | NC1CCC(C(=O)N2N=C(c3cc(F)ccc3F)SC23CCc2ccccc23)CC1 (stereo not drawn) [compound 445] |

From US8796460B2, “Compounds for inhibiting KSP kinesin activity” (Mercky Sharp & Dohme Corp., priority 2007, dated 2014)
